Columns and labels:
Type in all cases: in vivo
[1] = system: Lygus spinolai; test: Example 1A: field test on tea plants against Lygus spinolai; settings: nymphs on shoots, Imidacloprid (10 WP) 0.005 % a.s., (I-4) (150 OD) 0.01 % a.s.; for Efficacy (% Abbott) 15 d: 15 d after treatment; for Efficacy (% Abbott) 29 d: 29 d after treatment
Method: Plots approximately 4 m^2 in size which are planted with tea plants c.v. “Yabukita” are treated, in 3 replications, against Lygus spinolai. Here, the active substance Example (I-4) (150 OD) is tested at the specified application rate against the commercial standard Imidacloprid (10 WP) at the specified application rate. The application is effected with an engine-driven knapsack sprayer. Here, the treatment is carried out with a water application rate of 10 000 l/ha.
The test is evaluated 15 and 29 days after the treatment by determining the destruction of the nymphs on the shoots.

[2] = system: Thrips palmi; test: Example 7: aubergines against Thrips palmi; settings: for Efficacy (% Abbott) 7 d: 7 d after the second application, 20 leaves, Imidacloprid (100 SL) 0.0151 % a.s., (I-4) (+ 0.2% rapeseed oil methyl ester) 0.0096 % a.s.; for Efficacy (% Abbott) 13 d: 13 d after the second application; for Efficacy (% Abbott) 13 d / Efficacy (% Abbott) 21 d: Imidacloprid 0.0151 % a.s., (I-4) 0.0096 % a.s.; for Efficacy (% Abbott) 21 d: 21 d after the second application
Method: Plots approximately 16.5 m^2 in size which are planted with aubergines are treated, in three replications, against Thrips palmi. Here, the active substance Example (I-4) and the commercial standard Imidacloprid (100 SL) is applied at the specified application rates, using a knapsack sprayer which is operated with compressed air. The water application rate is 750 l/ha. In the case of Example (I-4), 0.2% a.s. rapeseed oil methyl ester (500 EW) is added to the spray mixture. Three applications are carried out at intervals of 7 and 14 days, respectively.
The destruction rate in percent is determined on in each case 20 leaves. The following results are obtained 7, 13 and 21 days after the second application: […]

[3] = system: Scirtothrips dorsalis; test: Example 10: tea plants against Scirtothrips dorsalis; settings: 7 d after treatment, nymphs, Ethiprole (SC10) 0.005, (I-4) (100 OD) 0.01, Imidacloprid (50 WG) 0.005 % a.s.
Method: Plots approx. 5 m^2 in size which are planted with tea plants cv. “Yabukita” which are approximately 18 years old are treated, in three replications, against Scirtothrips dorsalis. Here, the active substance Example (I-4) (100 OD) is tested, at the specified application rates, against the commercial standards Ethiprole (SC10 flowable) and Imidacloprid (50 WG). The application is carried out with a sprayer which is operated with pressurized air. The water application rate is 4500 l/ha. The test is evaluated 7 days after the treatment by scoring the destruction rate of the nymphs and the plants.

[4] = system: Idioscopus clypealis; test: Example 14: mango tree against Idioscopus clypealis; settings: nymphs on infructescences; for Efficacy (% Abbott) 7 days after treatment 4 / Efficacy (% Abbott) 7 days after treatment 5: Imidacloprid 0.00025 %, (I-4) 0.0016 %, Pymetrozine 0.002 %; for Efficacy (% Abbott) 7 days after treatment 3: Imidacloprid (100 SL) 0.00025 %, (I-4) (240 SC + 0.2% rapeseed oil methyl ester) 0.0016 %, Pymetrozine (WP 25) 0.002 %
Method: A mango tree which is approximately 14 years old is treated, in three replications, against Idioscopus clypealis. The application is carried out with a high-pressure sprayer. Here, the active substance Example (I-4) (240 SC), in a tank mix with 0.2% a.s. rapeseed oil methyl ester (500 EW) and the commercial standards Imidacloprid (100 SL) and Pymetrozine (WP 25), is tested at the specified application rates. The amount of spray mixture is 10 l/tree. Five treatments are carried out at intervals of 7, 14, 21 and 28 days.
The test is evaluated in each case 7 days after treatments 3 to 5 by scoring the destruction rate of the nymphs on the infructescences.

[5] = system: Empoasca biguttula; test: Example 16: aubergines against Empoasca biguttula; settings: for Efficacy (% Abott) 2 d: 2 d after first treatment, nymphs, Imidacloprid (SL 100) 30, (I-4) (150 OD) 50, Profenofos (500 EC) 500 g a.s./ha, two applications, interval 7 days; for Efficacy (% Abott) 6 d: 6 d after first treatment; for Efficacy (% Abott) 6 d / Efficacy (% Abott) 13 d: Imidacloprid 30, (I-4) 50, Profenofos 500 g a.s./ha; for Efficacy (% Abott) 13 d: 13 d after first treatment
Method: Plots 10 m^2 in size which are planted with aubergines are treated, in three replications, against Empoasca biguttula. The application is carried out with a knapsack sprayer which is operated with pressurized air. Here, the active substance Example (I-4) (150 OD) is tested against the commercial standards Imidacloprid (SL 100) and Profenofos (500 EC) at the specified application rates. Two applications are carried out at an interval of 7 days. The water application rate is 750 l/ha.
The test is evaluated 2, 6 and 13 days after the first treatment by scoring the destruction rates of the animals (nymphs) on the plants.

[6] = system: flea beetles (Phyllotreta sp.); test: Example 24: aubergines against flea beetles; settings: 7 d after the last of four treatments, larvae, Imidacloprid (100 SL) 100, (I-4) (100 OD) 70, Profenofos (500 EC) 500 g a.s./ha
Method: Plots approx. 12 m^2 in size which are planted with aubergines cv. “DLP” are treated, in three replications, against flea beetles (Phyllotreta sp.). The application is carried out with a knapsack sprayer which is operated with pressurized air. Here, the active substance Example (I-4) (100 OD) and the commercial standards Imidacloprid (100 SL) and Profenofos (500 EC) are applied at the specified application rates. Four applications are carried out at intervals of 7, 8 and 10 days, with a water application rate of 750 l/ha.
The test is evaluated 7 days after the last treatment by scoring the destruction rate of the larvae on the plants.

[7] = system: Phyllocnistis citrella; test: Example 27: orange trees against Phyllocnistis citrella; settings: larvae on shoots; for Efficacy (% Abbott) 7 d: 7 d after treatment, Imidacloprid (192 SC) 140, (I-4) (150 OD) 132 g a.s./ha; for Efficacy (% Abbott) 14 d: 14 d after treatment, Imidacloprid 140, (I-4) 132 g a.s./ha
Method: Small orange trees on plots approximately 30 m^2 in size are treated, in four replications, against Phyllocnistis citrella. The application is carried out with a motor-operated knapsack sprayer. Here, the active substance Example (I-4) (150 OD) is tested against the commercial standard Imidacloprid (192 SC) at the specified rates. The water application rate is 935 l/ha.
The test is evaluated 7 and 14 days after the treatment by scoring the destruction rates of the larvae on the shoots in percent.

[8] = system: Carpocapsa pomonella; test: Example 30: apple trees against Carpocapsa pomonella, fruit damage; settings: 14 days after treatment 2, Imidacloprid (200 SC) 0.015 %, (I-4) (150 OD) 0.015 %
Method: Approx. 16-year-old apple trees cv. “Golden Delicious” are treated, in four replications, against Carpocapsa pomonella. The application is carried out with a spray diffuser. Here, the active substance Example (I-4) (150 OD) is applied in comparison with Imidacloprid (200 SC) at the specified application rates. Two applications are carried out at an interval of 16 days, with a water application rate of 1000 l/ha.
The test is evaluated 14 days after treatment 2 by scoring the fruit damage with the aid of the Abbott formula.

| SMILES | Efficacy (% Abbott) 15 d [1] [% Abbott] | Efficacy (% Abbott) 29 d [1] [% Abbott] | Efficacy (% Abbott) 7 d [2] [% Abbott] | Efficacy (% Abbott) 13 d [2] [% Abbott] | Efficacy (% Abbott) 21 d [2] [% Abbott] | Efficacy (% Abbott) 7 d [3] [% Abbott] | Efficacy (% Abbott) 7 days after treatment 4 [4] [% Abbott] | Efficacy (% Abbott) 7 days after treatment 5 [4] [% Abbott] | Efficacy (% Abbott) 7 days after treatment 3 [4] [% Abbott] | Efficacy (% Abott) 2 d [5] [% Abott] | Efficacy (% Abott) 6 d [5] [% Abott] | Efficacy (% Abott) 13 d [5] [% Abott] | Efficacy (% Abbott) 7 d [6] [% Abbott] | Efficacy (% Abbott) 7 d [7] [% Abbott] | Efficacy (% Abbott) 14 d [7] [% Abbott] | Efficacy (% Abbott) [8] [% Abbott] |
| --- | --- | --- | --- | --- | --- | --- | --- | --- | --- | --- | --- | --- | --- | --- | --- | --- |
| CCOC(=O)OC1=C(c2cc(C)ccc2C)C(=O)N[C@]12CC[C@@H](OC)CC2 [Example (I-4)] | 92.9 | 100 | 84 | 88 | 78 | 100 | 98.1 | 99.4 | 54.7 | 52.4 | 56.0 | 66.7 | 89 | 97.9 | 68.2 | 73.7 |
| O=[N+]([O-])NC1=NCCN1Cc1ccc(Cl)nc1 [Imidacloprid] | 35.7 | 48.1 | 72 | 68 | 24 | 44.4 | 82.2 | 86.4 | 69.1 | 38.1 | 71.6 | 58.7 | 98 | 91.7 | 52.3 | 26.3 |

Source: patent US20090298903A1, “USE OF TETRAMIC ACID DERIVATIVES FOR INSECT CONTROL” (priority 2006, published 2009)
